Experimental data from ChEMBL document CHEMBL4028801, “A multifactorial approach to hepatobiliary transporter assessment enables improved therapeutic compound development” (Toxicol Sci, 2013).
pIC50: −log10 of the molar value. Blank lines part the entries; values can stand above or below the molecule they belong to.

Legend:
[1] = biological target: ATP-binding cassette sub-family C member 2 (Homo sapiens, UniProt Q92887); assay: Inhibition of human MRP2 overexpressed in Sf9 cell membrane vesicles assessed as uptake of [3H]-estradiol-17beta-D-glucuronide in presence of ATP and GSH measured after 20 mins by membrane vesicle transport assay
Chain of ATP-binding cassette sub-family C member 2 (Q92887 whole entry): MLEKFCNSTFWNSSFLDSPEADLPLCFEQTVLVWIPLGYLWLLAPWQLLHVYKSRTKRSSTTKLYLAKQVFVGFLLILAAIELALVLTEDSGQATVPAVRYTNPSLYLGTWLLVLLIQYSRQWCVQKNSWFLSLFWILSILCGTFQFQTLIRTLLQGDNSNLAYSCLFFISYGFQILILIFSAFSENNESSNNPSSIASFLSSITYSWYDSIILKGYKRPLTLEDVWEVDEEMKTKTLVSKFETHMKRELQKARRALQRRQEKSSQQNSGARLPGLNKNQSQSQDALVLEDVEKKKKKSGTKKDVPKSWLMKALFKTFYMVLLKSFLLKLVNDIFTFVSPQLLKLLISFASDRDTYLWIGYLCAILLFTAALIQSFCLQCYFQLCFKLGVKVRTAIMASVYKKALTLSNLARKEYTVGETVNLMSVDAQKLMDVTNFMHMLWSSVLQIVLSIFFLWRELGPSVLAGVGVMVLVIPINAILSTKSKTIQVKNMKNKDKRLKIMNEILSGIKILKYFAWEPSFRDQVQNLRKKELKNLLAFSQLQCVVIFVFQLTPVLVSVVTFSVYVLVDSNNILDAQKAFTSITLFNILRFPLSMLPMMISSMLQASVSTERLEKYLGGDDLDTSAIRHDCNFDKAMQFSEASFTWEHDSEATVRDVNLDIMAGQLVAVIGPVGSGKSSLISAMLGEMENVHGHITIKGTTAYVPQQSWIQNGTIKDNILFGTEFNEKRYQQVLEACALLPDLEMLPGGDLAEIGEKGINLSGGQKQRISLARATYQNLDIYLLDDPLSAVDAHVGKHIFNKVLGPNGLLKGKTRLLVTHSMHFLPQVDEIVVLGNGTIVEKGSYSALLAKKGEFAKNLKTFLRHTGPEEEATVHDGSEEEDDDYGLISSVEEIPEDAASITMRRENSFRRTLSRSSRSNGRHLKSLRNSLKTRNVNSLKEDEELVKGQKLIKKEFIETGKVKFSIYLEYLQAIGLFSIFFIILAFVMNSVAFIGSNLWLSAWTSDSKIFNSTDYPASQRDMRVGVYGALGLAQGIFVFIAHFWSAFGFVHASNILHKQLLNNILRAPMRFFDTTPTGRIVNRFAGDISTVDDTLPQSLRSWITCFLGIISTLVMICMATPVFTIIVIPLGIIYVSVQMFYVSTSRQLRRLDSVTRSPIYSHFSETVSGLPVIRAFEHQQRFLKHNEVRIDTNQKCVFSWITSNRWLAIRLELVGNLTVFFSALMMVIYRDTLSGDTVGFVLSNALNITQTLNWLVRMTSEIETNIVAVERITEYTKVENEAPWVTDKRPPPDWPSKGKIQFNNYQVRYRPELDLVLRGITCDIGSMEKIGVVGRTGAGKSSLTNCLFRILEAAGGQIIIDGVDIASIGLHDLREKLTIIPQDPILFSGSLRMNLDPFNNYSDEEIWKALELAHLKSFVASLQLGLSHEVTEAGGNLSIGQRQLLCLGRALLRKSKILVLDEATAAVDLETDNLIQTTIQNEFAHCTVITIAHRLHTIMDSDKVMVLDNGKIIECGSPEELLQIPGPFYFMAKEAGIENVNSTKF

[2] = biological target: ATP-binding cassette sub-family C member 3 (Homo sapiens, UniProt O15438); assay: Inhibition of human MRP3 overexpressed in Sf9 insect cell membrane vesicles assessed as uptake of [3H]-estradiol-17beta-D-glucuronide in presence of ATP and GSH measured after 10 mins by membrane vesicle transport assay; format: ADME, cell-based
Chain of ATP-binding cassette sub-family C member 3 (O15438 whole entry): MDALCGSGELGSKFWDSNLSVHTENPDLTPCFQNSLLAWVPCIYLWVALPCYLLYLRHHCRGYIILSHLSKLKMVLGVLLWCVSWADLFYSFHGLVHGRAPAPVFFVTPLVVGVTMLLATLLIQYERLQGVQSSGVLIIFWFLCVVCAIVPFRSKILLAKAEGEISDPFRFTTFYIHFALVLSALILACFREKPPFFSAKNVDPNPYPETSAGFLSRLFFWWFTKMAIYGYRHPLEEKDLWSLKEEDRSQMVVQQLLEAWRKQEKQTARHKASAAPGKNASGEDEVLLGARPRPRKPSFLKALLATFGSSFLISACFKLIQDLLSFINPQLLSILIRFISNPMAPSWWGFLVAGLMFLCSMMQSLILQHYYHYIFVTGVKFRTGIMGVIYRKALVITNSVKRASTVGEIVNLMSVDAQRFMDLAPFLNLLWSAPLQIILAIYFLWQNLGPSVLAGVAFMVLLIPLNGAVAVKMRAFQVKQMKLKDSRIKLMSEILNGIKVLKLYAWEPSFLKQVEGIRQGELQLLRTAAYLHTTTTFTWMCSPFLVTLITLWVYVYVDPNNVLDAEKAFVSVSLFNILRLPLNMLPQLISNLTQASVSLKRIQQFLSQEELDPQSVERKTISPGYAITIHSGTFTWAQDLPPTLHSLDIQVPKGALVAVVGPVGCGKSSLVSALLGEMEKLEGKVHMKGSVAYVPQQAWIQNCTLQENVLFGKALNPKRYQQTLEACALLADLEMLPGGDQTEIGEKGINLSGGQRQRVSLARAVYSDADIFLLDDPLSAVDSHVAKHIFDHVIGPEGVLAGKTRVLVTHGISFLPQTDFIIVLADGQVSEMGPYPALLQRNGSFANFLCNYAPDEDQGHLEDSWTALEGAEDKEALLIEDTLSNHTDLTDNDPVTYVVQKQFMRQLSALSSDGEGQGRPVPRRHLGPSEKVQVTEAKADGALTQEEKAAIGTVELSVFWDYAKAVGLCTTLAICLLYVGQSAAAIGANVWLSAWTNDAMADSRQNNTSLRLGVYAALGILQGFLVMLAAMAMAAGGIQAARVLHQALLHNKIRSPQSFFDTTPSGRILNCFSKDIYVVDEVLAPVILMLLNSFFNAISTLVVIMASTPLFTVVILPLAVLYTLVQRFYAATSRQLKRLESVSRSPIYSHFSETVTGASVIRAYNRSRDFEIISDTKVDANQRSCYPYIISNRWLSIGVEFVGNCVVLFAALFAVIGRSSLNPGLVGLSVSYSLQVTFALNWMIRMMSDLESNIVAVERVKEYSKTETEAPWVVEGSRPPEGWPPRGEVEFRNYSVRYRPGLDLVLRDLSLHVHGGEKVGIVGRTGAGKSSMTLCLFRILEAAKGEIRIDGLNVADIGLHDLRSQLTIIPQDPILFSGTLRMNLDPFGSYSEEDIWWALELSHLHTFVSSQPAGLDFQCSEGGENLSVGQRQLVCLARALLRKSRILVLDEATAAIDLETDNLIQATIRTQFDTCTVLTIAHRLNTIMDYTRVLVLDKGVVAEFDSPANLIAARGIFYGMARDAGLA

[3] = biological target: T1, ATP-binding cassette sub-family C member 4 (Homo sapiens, UniProt O15439); assay: Inhibition of human MRP4 overexpressed in Sf9 cell membrane vesicles assessed as uptake of [3H]-estradiol-17beta-D-glucuronide in presence of ATP and GSH measured after 20 mins by membrane vesicle transport assay; format: ADME, cell-based
T1 sequence (O15439 whole entry): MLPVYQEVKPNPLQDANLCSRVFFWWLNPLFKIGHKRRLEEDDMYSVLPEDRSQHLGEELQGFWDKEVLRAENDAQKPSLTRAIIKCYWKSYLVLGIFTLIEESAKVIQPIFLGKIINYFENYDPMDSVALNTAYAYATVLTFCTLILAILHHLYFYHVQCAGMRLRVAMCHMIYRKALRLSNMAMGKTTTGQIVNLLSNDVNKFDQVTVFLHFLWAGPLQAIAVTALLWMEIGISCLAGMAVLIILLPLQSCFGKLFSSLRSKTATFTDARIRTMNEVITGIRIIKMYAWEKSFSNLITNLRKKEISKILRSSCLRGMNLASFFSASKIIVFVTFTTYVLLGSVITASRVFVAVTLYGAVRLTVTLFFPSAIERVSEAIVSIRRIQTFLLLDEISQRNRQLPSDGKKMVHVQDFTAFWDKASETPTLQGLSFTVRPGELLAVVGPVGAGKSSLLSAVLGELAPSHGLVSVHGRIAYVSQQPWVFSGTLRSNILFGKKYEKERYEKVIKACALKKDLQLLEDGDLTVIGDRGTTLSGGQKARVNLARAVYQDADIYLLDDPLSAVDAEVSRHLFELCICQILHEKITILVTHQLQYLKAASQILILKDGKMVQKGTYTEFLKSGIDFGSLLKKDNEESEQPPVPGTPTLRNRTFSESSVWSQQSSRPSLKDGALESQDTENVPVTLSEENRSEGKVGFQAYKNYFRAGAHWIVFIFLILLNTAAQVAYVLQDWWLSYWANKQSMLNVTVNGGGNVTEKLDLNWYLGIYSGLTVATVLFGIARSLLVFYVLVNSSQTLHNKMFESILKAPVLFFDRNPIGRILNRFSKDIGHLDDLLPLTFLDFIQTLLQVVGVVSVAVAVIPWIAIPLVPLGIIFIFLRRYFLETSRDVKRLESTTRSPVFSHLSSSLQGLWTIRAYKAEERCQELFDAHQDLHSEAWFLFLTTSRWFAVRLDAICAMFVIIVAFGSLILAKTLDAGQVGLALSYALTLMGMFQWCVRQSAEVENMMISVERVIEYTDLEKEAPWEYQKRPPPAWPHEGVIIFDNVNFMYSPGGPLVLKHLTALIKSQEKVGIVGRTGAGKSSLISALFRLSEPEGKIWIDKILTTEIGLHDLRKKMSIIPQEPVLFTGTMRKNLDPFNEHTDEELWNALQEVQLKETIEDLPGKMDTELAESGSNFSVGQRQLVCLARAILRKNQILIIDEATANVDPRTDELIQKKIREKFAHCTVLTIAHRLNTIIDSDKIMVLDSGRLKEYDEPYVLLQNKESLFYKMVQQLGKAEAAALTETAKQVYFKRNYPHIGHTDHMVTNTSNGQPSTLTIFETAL

[4] = AUC in human at 400 to 1200 mg, po TID after 8 hrs; format: ADME, organism-based; details: in vivo
[5] = Drug concentration at steady state in human at 400 to 1200 mg, po TID after 8 hrs; format: ADME, organism-based; details: in vivo, read-out: Css
Bile salt export pump = Bile salt export pump (Homo sapiens, UniProt O95342); assay: Inhibition of human BSEP overexpressed in Sf9 cell membrane vesicles assessed as uptake of [3H]-taurocholate in presence of ATP measured after 15 to 20 mins by membrane vesicle transport assay; format: ADME, cell-based
Chain of Bile salt export pump (O95342 whole entry): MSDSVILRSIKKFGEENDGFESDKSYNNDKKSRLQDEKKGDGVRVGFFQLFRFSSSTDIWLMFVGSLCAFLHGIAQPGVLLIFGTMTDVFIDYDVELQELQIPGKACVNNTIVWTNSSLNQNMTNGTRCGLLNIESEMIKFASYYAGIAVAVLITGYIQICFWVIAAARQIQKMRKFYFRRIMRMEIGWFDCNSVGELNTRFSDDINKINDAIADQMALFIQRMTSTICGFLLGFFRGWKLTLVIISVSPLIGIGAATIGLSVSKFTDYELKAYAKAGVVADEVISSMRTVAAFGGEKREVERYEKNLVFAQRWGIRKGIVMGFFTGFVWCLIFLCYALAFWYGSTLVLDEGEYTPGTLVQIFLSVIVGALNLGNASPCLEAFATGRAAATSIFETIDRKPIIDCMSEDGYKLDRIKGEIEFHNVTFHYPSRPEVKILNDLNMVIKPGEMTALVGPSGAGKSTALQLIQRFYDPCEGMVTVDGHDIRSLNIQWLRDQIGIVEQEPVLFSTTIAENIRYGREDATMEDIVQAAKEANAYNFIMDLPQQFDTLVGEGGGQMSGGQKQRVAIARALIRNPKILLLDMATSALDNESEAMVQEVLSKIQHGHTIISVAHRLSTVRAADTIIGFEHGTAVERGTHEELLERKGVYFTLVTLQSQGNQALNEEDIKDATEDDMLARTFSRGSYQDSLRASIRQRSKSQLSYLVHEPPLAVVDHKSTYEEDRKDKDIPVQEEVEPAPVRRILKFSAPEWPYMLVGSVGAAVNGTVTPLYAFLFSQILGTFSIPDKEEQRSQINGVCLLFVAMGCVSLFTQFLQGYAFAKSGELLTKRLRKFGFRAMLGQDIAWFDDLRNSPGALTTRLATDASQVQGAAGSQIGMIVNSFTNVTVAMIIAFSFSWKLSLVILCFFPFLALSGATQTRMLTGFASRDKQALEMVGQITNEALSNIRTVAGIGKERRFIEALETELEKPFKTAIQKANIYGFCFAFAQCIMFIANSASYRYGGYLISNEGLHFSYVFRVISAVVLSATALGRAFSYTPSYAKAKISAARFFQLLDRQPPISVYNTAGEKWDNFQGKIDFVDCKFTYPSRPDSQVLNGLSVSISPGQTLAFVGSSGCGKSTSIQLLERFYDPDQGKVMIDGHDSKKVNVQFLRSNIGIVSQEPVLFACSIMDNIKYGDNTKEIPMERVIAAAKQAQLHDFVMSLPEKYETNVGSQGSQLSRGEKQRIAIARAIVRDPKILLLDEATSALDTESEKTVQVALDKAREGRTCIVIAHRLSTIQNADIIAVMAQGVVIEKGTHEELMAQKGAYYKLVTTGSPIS

[6] = AUC in human at 200 to 600 mg, po QD after 24 hrs; format: ADME, organism-based; details: in vivo
[7] = Drug concentration at steady state in human at 200 to 600 mg, po QD after 24 hrs; format: ADME, organism-based; details: in vivo, read-out: Css
[8] = Ratio of drug concentration at steady state in human at 200 to 600 mg, po QD after 24 hrs to IC50 for human BSEP overexpressed in Sf9 insect cells; format: ADME, organism-based; details: in vivo
[9] = Ratio of drug concentration at steady state in human at 200 to 600 mg, po QD after 24 hrs to IC50 for human MRP3 overexpressed in Sf9 insect cells; format: ADME, organism-based; details: in vivo
[10] = Ratio of drug concentration at steady state in human at 200 to 600 mg, po QD after 24 hrs to IC50 for human MRP4 overexpressed in Sf9 insect cells; format: ADME, organism-based; details: in vivo
[11] = AUC in human at 60 to 100 mg/m2, iv via infusion for 1 hr every 3 weeks measured after 1 hr; format: ADME, organism-based; parameters: time < 1 hr, route intravenous; details: in vivo
[12] = Drug concentration at steady state in human at 60 to 100 mg/m2, iv via infusion for 1 hr every 3 weeks measured after 1 hr; format: ADME, organism-based; details: in vivo, read-out: Css
[13] = Ratio of drug concentration at steady state in human at 60 to 100 mg/m2, iv via infusion for 1 hr every 3 weeks measured after 1 hr to IC50 for human BSEP overexpressed in Sf9 insect cells; format: ADME, organism-based
[14] = AUC in human at 400 to 600 mg, po QD after 24 hrs; format: ADME, organism-based; details: in vivo
[15] = Drug concentration at steady state in human at 400 to 600 mg, po QD after 24 hrs; format: ADME, organism-based; details: in vivo, read-out: Css
[16] = AUC in human at 400 mg, po BID for 5 to 10 days after 12 hrs; format: ADME, organism-based; parameters: dose 400 mg, time < 12 hr, route oral; details: in vivo
[17] = Drug concentration at steady state in human at 400 mg, po BID for 5 to 10 days after 12 hrs; format: ADME, organism-based; details: in vivo, read-out: Css
[18] = Ratio of drug concentration at steady state in human at 400 mg, po BID for 5 to 10 days after 12 hrs to IC50 for human BSEP overexpressed in Sf9 insect cells; format: ADME, organism-based; details: in vivo
[19] = Ratio of drug concentration at steady state in human at 400 mg, po BID for 5 to 10 days after 12 hrs to IC50 for human MRP4 overexpressed in Sf9 insect cells; format: ADME, organism-based; details: in vivo
[20] = Drug concentration at steady state in human at 100 to 300 mg, po QD after 24 hrs; format: ADME, organism-based; details: in vivo, read-out: Css
[21] = Ratio of drug concentration at steady state in human at 100 to 300 mg, po QD after 24 hrs to IC50 for human BSEP overexpressed in Sf9 insect cells; format: ADME, organism-based; details: in vivo
[22] = Ratio of drug concentration at steady state in human at 100 to 300 mg, po QD after 24 hrs to IC50 for human MRP2 overexpressed in Sf9 insect cells; format: ADME, organism-based; details: in vivo
[23] = Ratio of drug concentration at steady state in human at 100 to 300 mg, po QD after 24 hrs to IC50 for human MRP3 overexpressed in Sf9 insect cells; format: ADME, organism-based; details: in vivo
[24] = AUC in human at 100 to 300 mg, po QD after 24 hrs; format: ADME, organism-based; details: in vivo

pIC50 [2]: 4.51
pIC50 [3]: 4.21
AUC at 24 h [6]: 22.5 µM·h
concentration at 24 h [7]: 939 nM
Ratio [9]: 0.03
Ratio [10]: 0.015
Structure (SMILES): Cc1c(C)c2c(c(C)c1O)CCC(C)(COc1ccc(CC3SC(=O)NC3=O)cc1)O2 (stereo unspecified) [TROGLITAZONE]
pIC50 (Bile salt export pump): 5.52
Ratio [8]: 0.313

pIC50 [1]: < 3.88
pIC50 [2]: < 3.88
pIC50 [3]: 5.15
AUC at 12 h [16]: 11.6 µM·h
concentration at 12 h [17]: 964 nM
Ratio [19]: 0.136
Structure (SMILES): CC[C@H]1OC(=O)[C@H](C)C(=O)[C@H](C)[C@@H](O[C@@H]2O[C@H](C)C[C@H](N(C)C)[C@H]2O)[C@](C)(OC)C[C@@H](C)C(=O)[C@H](C)[C@H]2N(CCCCn3cnc(-c4cccnc4)c3)C(=O)O[C@]12C [TELITHROMYCIN]
pIC50 (Bile salt export pump): 5.30
Ratio [18]: 0.193

pIC50 [2]: 4.34
pIC50 [3]: 4.55
concentration at 24 h [20]: 2000 nM
Ratio [22]: 0.044
Ratio [23]: 0.07
AUC at 24 h [24]: 47.9 µM·h
Structure (SMILES): Cc1cc2c(cc1CC(=O)c1sccc1S(=O)(=O)Nc1onc(C)c1Cl)OCO2 [SITAXENTAN]
pIC50 (Bile salt export pump): 4.90
Ratio [21]: 0.158

The remaining lines, values behind:

Structure (SMILES): CC(C)(C)NC(=O)[C@@H]1C[C@@H]2CCCC[C@@H]2CN1C[C@@H](O)[C@H](Cc1ccccc1)NC(=O)[C@H](CC(N)=O)NC(=O)c1ccc2ccccc2n1
pIC50 [1]: < 3.88
pIC50 [2]: 4.38
pIC50 [3]: 4.23
AUC at 8 h [4]: 9.69 µM·h
concentration at 8 h [5]: 1210 nM

Structure (SMILES): CC(=O)O[C@@]12CO[C@@H]1C[C@H](O)[C@@]1(C)C(=O)[C@H](O)C3=C(C)[C@@H](OC(=O)[C@H](O)[C@@H](NC(=O)OC(C)(C)C)c4ccccc4)C[C@@](O)([C@@H](OC(=O)c4ccccc4)[C@H]21)C3(C)C [DOCETAXEL ANHYDROUS]
pIC50 (Bile salt export pump): 4.39
pIC50 [1]: < 3.88
pIC50 [2]: < 3.88
pIC50 [3]: < 3.88
AUC at 1 h [11]: 6.51 µM·h
concentration at 1 h [12]: 6520 nM
Ratio [13]: 0.16

Structure (SMILES): Cc1ccc(NC(=O)c2ccc(CN3CCN(C)CC3)cc2)cc1Nc1nccc(-c2cccnc2)n1 [IMATINIB]
pIC50 [1]: < 3.88
pIC50 [2]: < 3.88
pIC50 [3]: < 3.88
AUC at 24 h [14]: 106 µM·h
concentration at 24 h [15]: 4410 nM
